Experimental data reported in the kinase profiling compilation of Christmann-Franck et al. (2016).

Tests used:
Assay in all cases: KINOMEscan competition binding
Details in all cases: compound 10.0 µM
[1] = target: MINK1 (human) (UniProt Q8N4C8)
[2] = system: PIK3CA (human), P42336 [E542K]
[3] = target: MAP3K5 (human) (UniProt Q99683)
[4] = target: CLK2 (human) (UniProt P49760)
[5] = target: PIM3 (human) (UniProt Q86V86)
[6] = target: CHUK (human) (UniProt O15111)
[7] = target: MAP3K3 (human) (UniProt Q99759)
[8] = target: PRKAA1 (human) (UniProt Q13131)
[9] = target: PHKG1 (human) (UniProt Q16816)
[10] = target: BTK (human) (UniProt Q06187)
[11] = target: CaMK1 (human) (UniProt Q14012)
[12] = target: EPHA5 (human) (UniProt P54756)
[13] = target: DDR1 (human) (UniProt Q08345)
[14] = target: PIK3C2B (human) (UniProt O00750)
[15] = target: MYO3B (human) (UniProt Q8WXR4)
MYO3B (human), sequence (Q8WXR4 whole entry, looked up): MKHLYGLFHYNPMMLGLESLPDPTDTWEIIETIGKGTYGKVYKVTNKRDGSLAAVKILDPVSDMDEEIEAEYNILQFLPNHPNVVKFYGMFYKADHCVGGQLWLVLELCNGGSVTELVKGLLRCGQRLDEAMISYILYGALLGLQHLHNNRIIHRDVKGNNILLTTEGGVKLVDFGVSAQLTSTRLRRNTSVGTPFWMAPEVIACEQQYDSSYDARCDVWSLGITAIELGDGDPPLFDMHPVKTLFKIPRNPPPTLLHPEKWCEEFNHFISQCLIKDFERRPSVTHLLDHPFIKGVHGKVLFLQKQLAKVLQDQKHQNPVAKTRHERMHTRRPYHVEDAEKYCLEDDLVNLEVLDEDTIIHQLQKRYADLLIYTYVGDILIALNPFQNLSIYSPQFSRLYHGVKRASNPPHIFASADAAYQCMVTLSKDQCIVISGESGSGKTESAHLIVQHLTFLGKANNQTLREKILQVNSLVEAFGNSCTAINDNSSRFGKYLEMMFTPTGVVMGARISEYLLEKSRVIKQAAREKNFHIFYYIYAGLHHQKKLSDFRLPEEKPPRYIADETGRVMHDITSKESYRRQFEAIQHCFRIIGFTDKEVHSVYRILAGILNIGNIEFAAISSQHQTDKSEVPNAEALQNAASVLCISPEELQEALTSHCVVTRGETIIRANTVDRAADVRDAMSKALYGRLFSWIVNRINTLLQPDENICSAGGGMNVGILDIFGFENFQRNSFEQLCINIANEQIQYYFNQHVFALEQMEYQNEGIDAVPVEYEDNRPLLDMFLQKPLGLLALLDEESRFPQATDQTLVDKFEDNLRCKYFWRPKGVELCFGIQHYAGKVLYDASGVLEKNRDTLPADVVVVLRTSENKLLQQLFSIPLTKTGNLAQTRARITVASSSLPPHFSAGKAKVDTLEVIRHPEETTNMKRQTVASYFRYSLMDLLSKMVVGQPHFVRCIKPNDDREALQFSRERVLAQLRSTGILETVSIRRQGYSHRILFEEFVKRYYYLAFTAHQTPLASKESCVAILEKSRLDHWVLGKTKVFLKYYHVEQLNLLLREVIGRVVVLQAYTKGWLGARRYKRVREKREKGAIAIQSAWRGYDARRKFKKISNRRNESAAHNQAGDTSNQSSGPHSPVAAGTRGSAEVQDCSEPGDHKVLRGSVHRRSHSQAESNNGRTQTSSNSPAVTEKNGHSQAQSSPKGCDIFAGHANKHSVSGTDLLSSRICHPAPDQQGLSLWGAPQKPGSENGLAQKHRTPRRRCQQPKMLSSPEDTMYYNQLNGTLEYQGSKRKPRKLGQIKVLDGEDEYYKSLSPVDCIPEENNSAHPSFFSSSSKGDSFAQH

[16] = target: CDK2 (human) (UniProt P24941)
[17] = target: ROCK2 (human) (UniProt O75116)
ROCK2 (human), sequence (O75116 whole entry, looked up): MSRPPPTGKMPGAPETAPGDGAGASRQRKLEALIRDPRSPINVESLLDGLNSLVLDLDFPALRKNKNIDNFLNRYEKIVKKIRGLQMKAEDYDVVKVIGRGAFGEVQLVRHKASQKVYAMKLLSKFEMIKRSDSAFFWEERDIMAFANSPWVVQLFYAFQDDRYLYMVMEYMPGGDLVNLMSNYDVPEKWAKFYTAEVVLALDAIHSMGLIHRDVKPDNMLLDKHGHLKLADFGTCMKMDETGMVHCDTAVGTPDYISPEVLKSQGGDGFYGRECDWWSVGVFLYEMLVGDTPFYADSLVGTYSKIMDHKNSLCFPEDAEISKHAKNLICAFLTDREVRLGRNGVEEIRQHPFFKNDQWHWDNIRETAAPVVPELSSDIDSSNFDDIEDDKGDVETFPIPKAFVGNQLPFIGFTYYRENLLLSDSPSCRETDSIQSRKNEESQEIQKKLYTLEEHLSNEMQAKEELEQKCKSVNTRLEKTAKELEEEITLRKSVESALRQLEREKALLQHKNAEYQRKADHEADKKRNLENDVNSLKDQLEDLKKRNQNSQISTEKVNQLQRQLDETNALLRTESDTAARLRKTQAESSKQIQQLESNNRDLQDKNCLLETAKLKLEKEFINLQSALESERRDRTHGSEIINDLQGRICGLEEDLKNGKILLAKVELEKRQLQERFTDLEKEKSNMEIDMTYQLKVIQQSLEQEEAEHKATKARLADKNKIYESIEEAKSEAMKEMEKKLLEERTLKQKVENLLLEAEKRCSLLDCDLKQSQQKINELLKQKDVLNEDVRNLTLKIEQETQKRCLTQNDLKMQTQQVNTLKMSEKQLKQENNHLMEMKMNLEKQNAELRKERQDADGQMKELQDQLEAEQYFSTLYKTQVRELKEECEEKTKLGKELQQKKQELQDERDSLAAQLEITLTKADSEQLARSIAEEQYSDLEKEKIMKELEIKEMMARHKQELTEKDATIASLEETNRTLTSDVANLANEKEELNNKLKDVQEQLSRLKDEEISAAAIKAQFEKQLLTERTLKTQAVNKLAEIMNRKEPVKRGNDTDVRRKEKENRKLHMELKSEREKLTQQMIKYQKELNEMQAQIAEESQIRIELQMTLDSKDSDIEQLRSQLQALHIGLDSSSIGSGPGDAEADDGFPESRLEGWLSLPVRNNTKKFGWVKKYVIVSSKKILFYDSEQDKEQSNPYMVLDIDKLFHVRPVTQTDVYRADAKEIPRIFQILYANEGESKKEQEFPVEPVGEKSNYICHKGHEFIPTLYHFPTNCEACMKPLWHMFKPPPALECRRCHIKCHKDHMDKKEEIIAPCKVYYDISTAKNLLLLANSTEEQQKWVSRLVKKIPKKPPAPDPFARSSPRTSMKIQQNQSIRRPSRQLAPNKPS

[18] = target: IRAK3 (human) (UniProt Q9Y616)
[19] = target: TNNI3K (human) (UniProt Q59H18)
TNNI3K (human), sequence (Q59H18 whole entry, looked up): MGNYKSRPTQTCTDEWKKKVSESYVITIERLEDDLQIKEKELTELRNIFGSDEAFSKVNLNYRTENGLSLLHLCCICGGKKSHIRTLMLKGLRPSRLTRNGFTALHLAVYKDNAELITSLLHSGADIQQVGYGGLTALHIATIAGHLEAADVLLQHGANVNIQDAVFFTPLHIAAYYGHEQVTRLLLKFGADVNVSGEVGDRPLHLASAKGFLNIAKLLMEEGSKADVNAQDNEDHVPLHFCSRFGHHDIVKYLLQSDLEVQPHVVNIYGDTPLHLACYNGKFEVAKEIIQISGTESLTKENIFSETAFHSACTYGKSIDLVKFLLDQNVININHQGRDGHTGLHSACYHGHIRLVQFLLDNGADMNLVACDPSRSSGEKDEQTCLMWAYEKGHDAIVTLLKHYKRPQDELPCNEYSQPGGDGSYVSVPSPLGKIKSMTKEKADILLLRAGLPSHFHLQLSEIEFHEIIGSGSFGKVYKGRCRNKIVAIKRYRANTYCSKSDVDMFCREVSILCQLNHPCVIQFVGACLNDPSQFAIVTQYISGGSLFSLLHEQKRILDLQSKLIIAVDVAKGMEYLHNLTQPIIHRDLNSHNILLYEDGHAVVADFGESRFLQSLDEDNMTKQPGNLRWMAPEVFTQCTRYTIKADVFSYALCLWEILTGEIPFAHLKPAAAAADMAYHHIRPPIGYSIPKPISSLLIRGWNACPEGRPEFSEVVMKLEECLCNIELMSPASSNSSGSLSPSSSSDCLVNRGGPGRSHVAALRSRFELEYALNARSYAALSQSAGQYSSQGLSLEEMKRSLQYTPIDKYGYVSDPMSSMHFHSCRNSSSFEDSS

[20] = target: AKT1 (human) (UniProt P31749)
[21] = target: PRKX (human) (UniProt P51817)
[22] = target: CSNK1G1 (human) (UniProt Q9HCP0)
[23] = target: WEE2 (human) (UniProt P0C1S8)
[24] = target: BMPR1B (human) (UniProt O00238)
[25] = target: EPHA1 (human) (UniProt P21709)
[26] = target: FLT3 (human) (UniProt P36888)
[27] = target: ULK1 (human) (UniProt O75385)
[28] = target: MKNK1 (human) (UniProt Q9BUB5)
[29] = target: MAP3K4 (human) (UniProt Q9Y6R4)
[30] = target: STK10 (human) (UniProt O94804)
STK10 (human), sequence (O94804 whole entry, looked up): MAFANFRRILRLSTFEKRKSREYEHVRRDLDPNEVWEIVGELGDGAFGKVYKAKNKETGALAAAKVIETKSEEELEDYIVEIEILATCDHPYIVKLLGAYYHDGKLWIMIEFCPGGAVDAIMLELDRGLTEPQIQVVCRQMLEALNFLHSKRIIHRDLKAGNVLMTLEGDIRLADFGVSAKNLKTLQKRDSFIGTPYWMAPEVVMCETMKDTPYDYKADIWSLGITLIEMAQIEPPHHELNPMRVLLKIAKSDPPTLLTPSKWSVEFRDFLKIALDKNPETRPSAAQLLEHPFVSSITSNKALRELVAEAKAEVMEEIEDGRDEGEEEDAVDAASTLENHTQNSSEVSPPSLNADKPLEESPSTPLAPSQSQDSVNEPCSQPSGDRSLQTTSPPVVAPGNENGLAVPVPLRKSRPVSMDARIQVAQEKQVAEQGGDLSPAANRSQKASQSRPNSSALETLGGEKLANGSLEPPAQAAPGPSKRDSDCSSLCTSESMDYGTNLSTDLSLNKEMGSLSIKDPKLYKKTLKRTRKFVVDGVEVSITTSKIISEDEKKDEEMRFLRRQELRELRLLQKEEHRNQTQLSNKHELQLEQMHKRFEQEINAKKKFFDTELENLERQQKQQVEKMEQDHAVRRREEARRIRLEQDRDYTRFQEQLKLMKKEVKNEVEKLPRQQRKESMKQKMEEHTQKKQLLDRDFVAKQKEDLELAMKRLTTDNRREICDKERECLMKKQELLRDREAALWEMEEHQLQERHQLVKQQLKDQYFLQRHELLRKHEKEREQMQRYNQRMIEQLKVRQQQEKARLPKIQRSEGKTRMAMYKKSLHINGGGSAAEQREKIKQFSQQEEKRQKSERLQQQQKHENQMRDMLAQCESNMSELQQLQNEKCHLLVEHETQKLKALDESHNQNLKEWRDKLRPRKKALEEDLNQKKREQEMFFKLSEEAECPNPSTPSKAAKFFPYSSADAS

[31] = target: PRKD2 (human) (UniProt Q9BZL6)
[32] = target: AXL (human) (UniProt P30530)
[33] = target: CAMK1D (human) (UniProt Q8IU85)
[34] = target: PIP4K2B (human) (UniProt P78356)
[35] = system: KIT (human), P10721 [L576P]
[36] = target: PIK3CD (human) (UniProt O00329)
[37] = target: MAPK10 (human) (UniProt P53779)
[38] = target: NTRK3 (human) (UniProt Q16288)
[39] = target: RPS6KA2 KD1 (human) (UniProt Q15349)
[40] = target: NEK7 (human) (UniProt Q8TDX7)
[41] = target: MAP3K9 (human) (UniProt P80192)
[42] = target: BLK (human) (UniProt P51451)

CLK2 (human), sequence (P49760 whole entry, looked up): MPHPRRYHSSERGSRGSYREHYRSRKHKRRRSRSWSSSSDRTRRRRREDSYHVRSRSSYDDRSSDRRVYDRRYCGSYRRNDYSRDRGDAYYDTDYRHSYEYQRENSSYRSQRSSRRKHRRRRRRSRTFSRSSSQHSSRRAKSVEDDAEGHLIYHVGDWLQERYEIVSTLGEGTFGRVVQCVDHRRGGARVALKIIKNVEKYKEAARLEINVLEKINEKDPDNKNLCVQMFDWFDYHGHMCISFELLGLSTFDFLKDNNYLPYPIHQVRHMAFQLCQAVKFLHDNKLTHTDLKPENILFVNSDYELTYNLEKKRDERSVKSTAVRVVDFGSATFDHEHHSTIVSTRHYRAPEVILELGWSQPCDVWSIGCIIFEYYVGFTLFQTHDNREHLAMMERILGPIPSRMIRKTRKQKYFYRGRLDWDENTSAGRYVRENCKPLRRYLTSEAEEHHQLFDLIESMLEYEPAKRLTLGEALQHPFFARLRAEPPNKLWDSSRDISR

## COc1ccc(CNC(=O)Nc2ncc([N+](=O)[O-])s2)cc1
[1]
  kinase still bound, per cent of control: 86%
[2]
  kinase still bound, per cent of control: 100%
[3]
  kinase still bound, per cent of control: 71%
[4]
  kinase still bound, per cent of control: 73%
[5]
  kinase still bound, per cent of control: 83%
[6]
  kinase still bound, per cent of control: 100%
[7]
  kinase still bound, per cent of control: 97%
[8]
  kinase still bound, per cent of control: 100%
[9]
  kinase still bound, per cent of control: 97%
[10]
  kinase still bound, per cent of control: 100%
[11]
  kinase still bound, per cent of control: 100%
[12]
  kinase still bound, per cent of control: 100%
[13]
  kinase still bound, per cent of control: 100%
[14]
  kinase still bound, per cent of control: 94%
[15]
  kinase still bound, per cent of control: 100%
[16]
  kinase still bound, per cent of control: 74%
[17]
  kinase still bound, per cent of control: 100%
[18]
  kinase still bound, per cent of control: 100%
[19]
  kinase still bound, per cent of control: 100%
[20]
  kinase still bound, per cent of control: 86%
[21]
  kinase still bound, per cent of control: 42%
[22]
  kinase still bound, per cent of control: 66%
[23]
  kinase still bound, per cent of control: 100%
[24]
  kinase still bound, per cent of control: 89%
[25]
  kinase still bound, per cent of control: 100%
[26]
  kinase still bound, per cent of control: 86%
[27]
  kinase still bound, per cent of control: 100%
[28]
  kinase still bound, per cent of control: 100%
[29]
  kinase still bound, per cent of control: 100%
[30]
  kinase still bound, per cent of control: 100%
[31]
  kinase still bound, per cent of control: 93%
[32]
  kinase still bound, per cent of control: 100%
[33]
  kinase still bound, per cent of control: 100%
[34]
  kinase still bound, per cent of control: 69%
[35]
  kinase still bound, per cent of control: 97%
[36]
  kinase still bound, per cent of control: 100%
[37]
  kinase still bound, per cent of control: 53%
[38]
  kinase still bound, per cent of control: 85%
[39]
  kinase still bound, per cent of control: 100%
[40]
  kinase still bound, per cent of control: 100%

## Cc1cnc(-c2cnc(NCCNc3ccc(C#N)cn3)nc2-c2ccc(Cl)cc2Cl)[nH]1
[1]
  kinase still bound, per cent of control: 75%
[2]
  kinase still bound, per cent of control: 100%
[3]
  kinase still bound, per cent of control: 100%
[4]
  kinase still bound, per cent of control: 40%
[5]
  kinase still bound, per cent of control: 95%
[6]
  kinase still bound, per cent of control: 100%
[7]
  kinase still bound, per cent of control: 100%
[8]
  kinase still bound, per cent of control: 82%
[9]
  kinase still bound, per cent of control: 100%
[10]
  kinase still bound, per cent of control: 100%
[11]
  kinase still bound, per cent of control: 100%
[12]
  kinase still bound, per cent of control: 100%
[13]
  kinase still bound, per cent of control: 100%
[14]
  kinase still bound, per cent of control: 91%
[15]
  kinase still bound, per cent of control: 100%
[16]
  kinase still bound, per cent of control: 54%
[17]
  kinase still bound, per cent of control: 100%
[18]
  kinase still bound, per cent of control: 100%
[19]
  kinase still bound, per cent of control: 100%
[20]
  kinase still bound, per cent of control: 100%
[21]
  kinase still bound, per cent of control: 100%
[22]
  kinase still bound, per cent of control: 49%
[23]
  kinase still bound, per cent of control: 100%
[24]
  kinase still bound, per cent of control: 92%
[25]
  kinase still bound, per cent of control: 100%
[26]
  kinase still bound, per cent of control: 100%
[27]
  kinase still bound, per cent of control: 94%
[28]
  kinase still bound, per cent of control: 100%
[29]
  kinase still bound, per cent of control: 100%
[30]
  kinase still bound, per cent of control: 100%
[41]
  kinase still bound, per cent of control: 55%
[31]
  kinase still bound, per cent of control: 100%
[32]
  kinase still bound, per cent of control: 100%
[33]
  kinase still bound, per cent of control: 100%
[34]
  kinase still bound, per cent of control: 98%
[35]
  kinase still bound, per cent of control: 92%
[36]
  kinase still bound, per cent of control: 93%
[37]
  kinase still bound, per cent of control: 64%
[42]
  kinase still bound, per cent of control: 100%
[38]
  kinase still bound, per cent of control: 100%
[39]
  kinase still bound, per cent of control: 70%
[40]
  kinase still bound, per cent of control: 98%

## Cn1cc(C2=C(c3ccc(Cl)cc3Cl)C(=O)NC2=O)c2ccccc21
[1]
  kinase still bound, per cent of control: 60%
[2]
  kinase still bound, per cent of control: 100%
[3]
  kinase still bound, per cent of control: 100%
[4]
  kinase still bound, per cent of control: 0.45%
[5]
  kinase still bound, per cent of control: 18%
[6]
  kinase still bound, per cent of control: 84%
[7]
  kinase still bound, per cent of control: 88%
[8]
  kinase still bound, per cent of control: 61%
[9]
  kinase still bound, per cent of control: 100%
[10]
  kinase still bound, per cent of control: 100%
[11]
  kinase still bound, per cent of control: 98%
[12]
  kinase still bound, per cent of control: 99%
[13]
  kinase still bound, per cent of control: 100%
[14]
  kinase still bound, per cent of control: 100%
[15]
  kinase still bound, per cent of control: 100%
[16]
  kinase still bound, per cent of control: 7.4%
[17]
  kinase still bound, per cent of control: 100%
[18]
  kinase still bound, per cent of control: 100%
[19]
  kinase still bound, per cent of control: 80%
[20]
  kinase still bound, per cent of control: 100%
[21]
  kinase still bound, per cent of control: 100%
[22]
  kinase still bound, per cent of control: 81%
[23]
  kinase still bound, per cent of control: 100%
[24]
  kinase still bound, per cent of control: 86%
[25]
  kinase still bound, per cent of control: 100%
[26]
  kinase still bound, per cent of control: 93%
[27]
  kinase still bound, per cent of control: 96%
[28]
  kinase still bound, per cent of control: 84%
[29]
  kinase still bound, per cent of control: 98%
[30]
  kinase still bound, per cent of control: 97%
[41]
  kinase still bound, per cent of control: 89%
[31]
  kinase still bound, per cent of control: 99%
[32]
  kinase still bound, per cent of control: 100%
[33]
  kinase still bound, per cent of control: 76%
[34]
  kinase still bound, per cent of control: 86%
[35]
  kinase still bound, per cent of control: 72%
[36]
  kinase still bound, per cent of control: 100%
[37]
  kinase still bound, per cent of control: 62%
[42]
  kinase still bound, per cent of control: 100%
[38]
  kinase still bound, per cent of control: 62%
[39]
  kinase still bound, per cent of control: 73%
[40]
  kinase still bound, per cent of control: 89%
